# Laboratory results taken from ChEMBL document CHEMBL1201862, “PubChem BioAssay data set” (2004).
# Active and inactive are the calls of the source.
# Legend:
# Leucine aminopeptidase = target: T1, Leucine aminopeptidase (Plasmodium falciparum 3D7, UniProt Q8IL11); assay: P. falciparum M17LAP inhibitors, primary screen, biochemical, fluorogenic H-Leu-NHMec substrate, 1536-well (AID 1619); type: functional
# T1 sequence (Q8IL11 whole entry): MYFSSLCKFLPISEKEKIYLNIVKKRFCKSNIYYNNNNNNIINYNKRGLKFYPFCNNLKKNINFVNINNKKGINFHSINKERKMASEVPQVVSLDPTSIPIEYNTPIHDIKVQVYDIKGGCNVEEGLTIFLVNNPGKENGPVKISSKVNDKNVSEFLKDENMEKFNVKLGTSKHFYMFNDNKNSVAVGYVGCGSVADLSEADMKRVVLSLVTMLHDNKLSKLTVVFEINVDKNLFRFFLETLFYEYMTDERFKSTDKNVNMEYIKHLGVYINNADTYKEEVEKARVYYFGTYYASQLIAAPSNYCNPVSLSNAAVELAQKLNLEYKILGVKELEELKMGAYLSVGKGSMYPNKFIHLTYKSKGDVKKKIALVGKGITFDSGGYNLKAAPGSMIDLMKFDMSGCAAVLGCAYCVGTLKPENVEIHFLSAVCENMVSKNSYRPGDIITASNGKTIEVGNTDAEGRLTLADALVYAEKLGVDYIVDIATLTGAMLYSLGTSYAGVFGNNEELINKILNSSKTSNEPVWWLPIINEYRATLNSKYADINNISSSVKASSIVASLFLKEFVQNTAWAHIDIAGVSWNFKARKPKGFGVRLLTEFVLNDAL
# [1] = target: T2, Short transient receptor potential channel 4 (Mus musculus, UniProt Q9QUQ5); assay: mouse TRPC4 channel activators, dose response, cell-based, HEK293 TRPC4/mu-opioid, Fluo-4 calcium (AID 434937); type: functional
# T2 sequence (Q9QUQ5 whole entry): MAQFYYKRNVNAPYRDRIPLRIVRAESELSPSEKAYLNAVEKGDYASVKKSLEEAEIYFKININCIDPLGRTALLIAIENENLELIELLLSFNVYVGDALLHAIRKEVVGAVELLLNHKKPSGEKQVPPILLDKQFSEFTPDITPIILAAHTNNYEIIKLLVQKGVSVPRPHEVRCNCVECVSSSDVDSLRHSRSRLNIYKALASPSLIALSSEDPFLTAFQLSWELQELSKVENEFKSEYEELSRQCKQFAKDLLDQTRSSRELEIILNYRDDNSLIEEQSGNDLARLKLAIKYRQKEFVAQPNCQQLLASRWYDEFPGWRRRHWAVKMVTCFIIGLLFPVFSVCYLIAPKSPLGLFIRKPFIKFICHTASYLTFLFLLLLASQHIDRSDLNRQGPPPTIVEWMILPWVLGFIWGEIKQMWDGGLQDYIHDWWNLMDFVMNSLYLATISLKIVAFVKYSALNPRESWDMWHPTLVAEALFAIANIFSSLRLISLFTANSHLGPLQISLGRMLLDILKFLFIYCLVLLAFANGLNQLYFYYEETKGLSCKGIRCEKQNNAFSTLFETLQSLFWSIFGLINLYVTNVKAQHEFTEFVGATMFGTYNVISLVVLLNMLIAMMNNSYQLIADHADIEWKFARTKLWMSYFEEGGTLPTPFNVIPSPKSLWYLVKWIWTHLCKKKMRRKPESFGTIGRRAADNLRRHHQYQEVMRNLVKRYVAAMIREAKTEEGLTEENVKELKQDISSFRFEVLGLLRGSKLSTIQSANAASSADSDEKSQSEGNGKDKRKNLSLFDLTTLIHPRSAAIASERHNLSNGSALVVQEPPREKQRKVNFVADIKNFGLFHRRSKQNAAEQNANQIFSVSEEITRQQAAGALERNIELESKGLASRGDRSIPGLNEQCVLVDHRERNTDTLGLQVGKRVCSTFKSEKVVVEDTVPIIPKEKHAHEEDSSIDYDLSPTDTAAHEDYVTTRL
# [2] = target: T3, High affinity choline transporter 1 (Homo sapiens, UniProt Q9GZV3); assay: CHT inhibitors, dose response, cell-based, 5-point CRC, membrane potential dye (AID 504840); type: functional
# T3 sequence (Q9GZV3 whole entry): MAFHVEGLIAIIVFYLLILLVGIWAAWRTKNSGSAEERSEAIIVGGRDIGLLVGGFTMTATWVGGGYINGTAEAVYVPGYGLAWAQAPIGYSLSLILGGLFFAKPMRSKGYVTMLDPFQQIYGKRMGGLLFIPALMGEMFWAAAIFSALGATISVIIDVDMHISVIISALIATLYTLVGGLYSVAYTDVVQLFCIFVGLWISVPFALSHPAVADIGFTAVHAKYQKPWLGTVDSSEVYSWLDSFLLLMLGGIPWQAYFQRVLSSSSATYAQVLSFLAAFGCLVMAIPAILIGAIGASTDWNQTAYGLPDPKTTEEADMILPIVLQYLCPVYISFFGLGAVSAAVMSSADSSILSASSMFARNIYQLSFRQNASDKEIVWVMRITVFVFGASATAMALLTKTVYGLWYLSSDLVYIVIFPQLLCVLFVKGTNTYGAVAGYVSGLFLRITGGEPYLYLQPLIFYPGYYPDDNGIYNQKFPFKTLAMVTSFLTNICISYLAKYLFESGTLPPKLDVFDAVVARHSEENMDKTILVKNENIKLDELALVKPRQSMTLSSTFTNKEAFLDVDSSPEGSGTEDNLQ
# [3] = insulin promoter down-regulators in MIN6 cells, imaging, high-content screening, mouse beta cells (AID 1628); type: functional
# [4] = cytotoxicity in MIN6 insulinoma cells, dose response, cytotoxicity control, cell-based, mouse insulinoma (AID 2122); type: functional;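 note: confirmatory high-throughput counterscreen run to flag cytotoxic compounds; mouse MIN-6 beta cells carrying an insulin promoter eGFP reporter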
# [5] = target: Luciferin 4-monooxygenase (Photinus pyralis, UniProt P08659); assay: firefly luciferase enzyme inhibitors, dose response, biochemical, luminescence (AID 1891)
# Chain of Luciferin 4-monooxygenase (P08659 whole entry): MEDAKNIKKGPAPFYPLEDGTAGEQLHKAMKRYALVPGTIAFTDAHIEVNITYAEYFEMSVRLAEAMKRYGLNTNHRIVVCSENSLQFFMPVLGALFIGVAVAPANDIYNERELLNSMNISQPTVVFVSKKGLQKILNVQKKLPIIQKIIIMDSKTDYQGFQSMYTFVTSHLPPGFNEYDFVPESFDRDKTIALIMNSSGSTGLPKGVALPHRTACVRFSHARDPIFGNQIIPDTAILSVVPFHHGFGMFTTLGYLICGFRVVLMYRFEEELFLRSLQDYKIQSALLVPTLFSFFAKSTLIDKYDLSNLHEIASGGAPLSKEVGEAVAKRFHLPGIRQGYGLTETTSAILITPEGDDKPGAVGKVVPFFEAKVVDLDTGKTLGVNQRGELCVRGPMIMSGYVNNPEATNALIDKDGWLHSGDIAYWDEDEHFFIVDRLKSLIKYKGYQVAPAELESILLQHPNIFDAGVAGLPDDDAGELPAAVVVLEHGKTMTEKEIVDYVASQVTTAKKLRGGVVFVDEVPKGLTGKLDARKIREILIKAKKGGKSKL
# [6] = Luminescence Cell-Based Dose Confirmation HTS to Identify Inhibitors of Platelet Dense Granule Release. [Related pubchem assays: 1663 (Primary HTS), 1678 (Summary of Project)]; type: functional
# Caspase-3 = target: T4, Caspase-3 (Homo sapiens, UniProt P42574); type: functional;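 note: Dose-response selectivity test against caspase-3 for candidate inhibitors of sentrin-specific proteases (SENPs)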
# T4 sequence (P42574 whole entry): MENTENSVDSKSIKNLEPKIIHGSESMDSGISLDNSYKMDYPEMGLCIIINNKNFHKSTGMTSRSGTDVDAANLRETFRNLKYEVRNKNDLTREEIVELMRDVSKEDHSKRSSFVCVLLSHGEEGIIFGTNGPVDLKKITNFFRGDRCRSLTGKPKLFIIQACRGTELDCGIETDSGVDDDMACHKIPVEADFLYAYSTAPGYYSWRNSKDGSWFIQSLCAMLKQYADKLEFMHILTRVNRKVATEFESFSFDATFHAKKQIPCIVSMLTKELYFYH
# [7] = target: T5, Sentrin-specific protease 7 (Homo sapiens, UniProt Q9BQF6); type: functional;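 note: Luminescence-based dose-response confirmation of ultra-high-throughput screening hits, measuring inhibition of SENP7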
# T5 sequence (Q9BQF6 whole entry): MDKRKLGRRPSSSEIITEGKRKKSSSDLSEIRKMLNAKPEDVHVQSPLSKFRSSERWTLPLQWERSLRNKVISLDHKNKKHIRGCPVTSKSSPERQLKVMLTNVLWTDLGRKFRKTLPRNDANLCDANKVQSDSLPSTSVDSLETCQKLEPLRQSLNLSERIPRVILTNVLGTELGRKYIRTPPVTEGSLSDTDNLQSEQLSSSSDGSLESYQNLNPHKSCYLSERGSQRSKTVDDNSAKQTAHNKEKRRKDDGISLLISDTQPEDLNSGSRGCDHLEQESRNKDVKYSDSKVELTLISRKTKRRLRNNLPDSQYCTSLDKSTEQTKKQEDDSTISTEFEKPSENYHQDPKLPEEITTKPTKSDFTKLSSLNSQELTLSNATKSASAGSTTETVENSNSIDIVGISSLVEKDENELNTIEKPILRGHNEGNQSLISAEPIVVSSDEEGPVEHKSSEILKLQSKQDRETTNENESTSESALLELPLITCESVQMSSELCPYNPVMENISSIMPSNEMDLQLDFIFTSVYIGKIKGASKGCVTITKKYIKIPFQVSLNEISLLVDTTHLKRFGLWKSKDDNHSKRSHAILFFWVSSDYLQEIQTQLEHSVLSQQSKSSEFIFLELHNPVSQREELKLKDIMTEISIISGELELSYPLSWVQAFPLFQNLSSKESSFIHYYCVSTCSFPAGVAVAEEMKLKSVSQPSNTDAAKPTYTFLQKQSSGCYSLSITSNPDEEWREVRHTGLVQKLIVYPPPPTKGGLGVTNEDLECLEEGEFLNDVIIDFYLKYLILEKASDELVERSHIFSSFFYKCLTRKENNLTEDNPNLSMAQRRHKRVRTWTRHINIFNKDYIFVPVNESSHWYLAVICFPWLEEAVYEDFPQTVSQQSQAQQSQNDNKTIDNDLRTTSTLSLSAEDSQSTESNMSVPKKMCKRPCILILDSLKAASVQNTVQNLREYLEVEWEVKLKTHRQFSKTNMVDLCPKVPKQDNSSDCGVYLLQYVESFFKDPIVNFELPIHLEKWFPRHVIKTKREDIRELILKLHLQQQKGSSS
# [8] = target: T6, Sentrin-specific protease 6 (Homo sapiens, UniProt Q9GZR1); type: functional;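 note: Luminescence-based dose-response confirmatory assay of SENP6 inhibition, following up an ultra-high-throughput screen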
# T6 sequence (Q9GZR1 whole entry): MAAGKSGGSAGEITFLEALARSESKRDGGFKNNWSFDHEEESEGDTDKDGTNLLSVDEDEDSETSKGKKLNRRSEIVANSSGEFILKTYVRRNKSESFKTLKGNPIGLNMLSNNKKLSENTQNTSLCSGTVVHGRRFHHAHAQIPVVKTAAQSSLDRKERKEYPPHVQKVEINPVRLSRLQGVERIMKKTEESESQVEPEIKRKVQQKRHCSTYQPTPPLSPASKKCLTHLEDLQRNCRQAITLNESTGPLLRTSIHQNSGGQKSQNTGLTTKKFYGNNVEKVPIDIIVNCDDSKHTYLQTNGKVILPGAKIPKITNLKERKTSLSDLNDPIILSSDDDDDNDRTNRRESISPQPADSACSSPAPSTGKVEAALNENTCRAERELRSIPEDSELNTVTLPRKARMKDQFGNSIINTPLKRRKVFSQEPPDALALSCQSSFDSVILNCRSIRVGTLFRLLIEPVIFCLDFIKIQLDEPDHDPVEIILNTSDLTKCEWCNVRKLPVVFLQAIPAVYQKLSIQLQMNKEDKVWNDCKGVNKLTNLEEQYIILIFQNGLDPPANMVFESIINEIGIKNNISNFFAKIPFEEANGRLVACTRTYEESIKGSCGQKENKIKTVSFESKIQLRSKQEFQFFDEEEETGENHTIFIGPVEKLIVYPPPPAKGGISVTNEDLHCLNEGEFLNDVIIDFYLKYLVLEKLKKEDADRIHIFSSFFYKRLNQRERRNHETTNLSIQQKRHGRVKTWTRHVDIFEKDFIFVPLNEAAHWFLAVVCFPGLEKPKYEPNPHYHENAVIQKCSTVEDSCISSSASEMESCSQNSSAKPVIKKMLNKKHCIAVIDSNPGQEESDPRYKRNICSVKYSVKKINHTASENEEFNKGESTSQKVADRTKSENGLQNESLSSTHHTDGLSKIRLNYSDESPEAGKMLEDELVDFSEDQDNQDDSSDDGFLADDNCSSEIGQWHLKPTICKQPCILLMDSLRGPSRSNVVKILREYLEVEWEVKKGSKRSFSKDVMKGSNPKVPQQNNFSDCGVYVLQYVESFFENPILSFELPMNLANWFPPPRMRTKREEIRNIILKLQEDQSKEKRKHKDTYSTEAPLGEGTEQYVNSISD
# [9] = target: T7, Sentrin-specific protease 8 (Homo sapiens, UniProt Q96LD8); type: functional;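 note: luminescence read-out of SENP8 inhibition, dose-response confirmation following an ultra-high-throughput screen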
# T7 sequence (Q96LD8 whole entry): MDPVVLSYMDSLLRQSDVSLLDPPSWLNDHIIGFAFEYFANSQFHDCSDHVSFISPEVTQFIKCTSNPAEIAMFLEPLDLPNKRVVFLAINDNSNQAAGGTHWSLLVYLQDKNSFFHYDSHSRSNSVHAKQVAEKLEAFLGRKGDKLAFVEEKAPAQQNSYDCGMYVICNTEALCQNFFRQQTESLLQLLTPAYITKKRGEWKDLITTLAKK
# [10] = microbe, parasite or virus in culture; type: functional; conditions: Mycobacterium tuberculosis
# HEK293 = assay: inhibitors of LMP1-driven NF-kB reporter, dose response, cell-based, HEK293, luciferase, cherry-pick (AID 588343); type: functional; conditions: Homo sapiens
# [11] = Shn3 3'UTR reporter inhibitors, dose response, cell-based, Clone20 osteoblasts, firefly luciferase, cherry-picked (AID 624132); type: functional;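 note: firefly luciferase luminescence from reporter carrying the Shn3 3'UTR in osteoblasts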
# [12] = HepG2 cell cytotoxicity, dose response, cytotoxicity control for Shn3 inhibitor project, CellTiter-Glo, cherry-picked (AID 624134); type: functional, cell-based
# [13] = control 3'UTR Renilla luciferase suppression, dose response, counter-screen for Shn3 inhibitor project, cell-based, Clone20-Shn3RL, cherry-picked (AID 624133); type: functional
SMILES,IC50 [3],IC50 [4],IC50 (Caspase-3),IC50 [7],IC50 [8],IC50 [9],other results
Cc1ccccc1C(=O)NNC(=S)NC(=O)c1ccccc1,–,–,–,–,–,–,IC50 (Leucine aminopeptidase): 91.2 µM (active); EC50 [1]: 2.11 µM (active); IC50 [2]: 12.6 µM (active)
CCc1ccc2c(c1)CCCN2C(=O)c1ccccc1C(=O)O,1.56 µM (active),0.994 µM (active),–,–,–,–,–
O=C1/C(=C/c2ccc([N+](=O)[O-])cc2)CCc2ccccc21,–,–,5.9 µM (active),0.696 µM (active),0.789 µM (active),1.13 µM (active),EC50 [5]: 0.404 µM (active); EC50 [6]: 1.11 µM (active)
Cc1cc(-c2csc(Nc3ccccn3)n2)ccc1F,–,–,26 µM (active),3.53 µM (active),12.5 µM (active),19.2 µM (active),–
O=c1cc(-c2ccc(O)cc2)oc2ccc(O)cc12,–,–,16.8 µM (active),9.8 µM (active),87.7 µM (active),11.6 µM (active),–
Brc1ccc2c(c1)C(OC1CN3CCC1CC3)c1ccccc1CS2 (stereo unspecified),2.34 µM (active),2.13 µM (active),–,–,–,–,CC50 [10]: 13.1 µM (active); IC50 [2]: 16 µM (active)
Cn1c(=O)c2c(nc(NCc3ccco3)n2C/C=C/c2ccccc2)n(C)c1=O,0.41 µM (active),< 0.25 µM (active),–,–,–,–,EC50 [5]: > 112 µM (not active); EC50 [6]: 30 µM (active); AC50 (HEK293): 4.38 µM (active); AC50 [11]: 1.08 µM (active); AC50 [12]: 4.24 µM (active); AC50 [13]: 1.13 µM (active)
